Assay: Miscibility of pheromones with corn oil or triethylcitrate
Assay type: physicochemical
Text: Miscibility of the active ingredient and diluents were further examined by forming mixtures of various active ingredients (pheromones) with corn oil or triethylcitrate. The final composition of the mixture produced was 40 vol. % pheromones and 60 vol. % diluent (i.e., corn oil or triethyl citrate). The individual pheromones evaluated were: tomato pinworm, pink bollworm, leafroller, oriental fruitmoth, and coddling moth.

**Q.** What does the source list for `C/C=C/C=C/CCCCCCCO` [coddling moth]?
**A.** Dissolution in both corn oil and triethyl citrate (pheromone solid at room temperature): dissolved freely; Miscibility in corn oil or triethylcitrate (room temperature, 40 vol. % pheromones/60 vol. % diluent): completely miscible
